In patent US12162879B2, “Pyridopyrimidine derivative, preparation method therefor and medical use thereof” (Jiangsu Hengrui Medicine Co., Ltd., priority 2018, dated 2024):

Key:
Assay type in all cases: cell-based
human TLR8 = human TLR8 (Homo sapiens (Human), UniProt Q9NR97); assay: Agonist activity on human TLR8 in HEK-Blue hTLR8 stably transfected cells; conditions: 16 hours, OD 620 nm
Method: The agonist effect of the compounds of the present invention on hTLR8 expressed by the HEK-Blue™ hTLR8 stably transfected cells was determined by the following experimental method.
(§1) • 1. DMEM(Gibco, 10564-029); • 2. Fetal bovine serum (GIBCO, 10099); • 3. Trypan blue solution (Sigma, T8154-100 ML); • 4. Flexstation 3 multi-function microplate reader (Molecular Devices); • 5. HEK-Blue™ hTLR8 cell line (InvivoGen, hkb-hTLR8), or HEK-Blue™ hTLR7 cell line (InvivoGen, hkb-hTLR7); • 6. HEK-Blue detection reagent (InvivoGen, hb-det3); and • 7. Phosphate buffer solution (PBS) pH 7.4 (Shanghai Basalmedia Technologies Co., Ltd., B320). II. Experimental Procedures a. Determination of Agonist Activity on Human TLR8
(§2) A bag of HEK-Blue detection dry powder was dissolved in 50 ml of water free of endotoxin, and the solution was then placed in an incubator at 37° C. for 10 minutes followed by sterile filtration to prepare a HEK-Blue detection medium. The compound was firstly formulated into a 20 mM stock solution, then diluted with pure DMSO to a maximum concentration of 6×10^6 nM, and a total of 10 points were obtained by a 3-fold gradient dilution. The above formulated compound was firstly diluted 20-fold with the medium, then 20 μl of the diluted compound was added to each well.
(§3) The supernate was removed from the HEK-Blue™ hTLR8 cells, to which 2-5 ml of pre-warmed PBS was then added. The cells were placed in an incubator for 1-2 minutes, gently pipetted, and counted by trypan blue staining. The cells were re-suspended in the HEK-Blue detection medium to adjust the concentration to 2.2×10^5 cells/ml. 180 μl of cells was added to the above 96-well plate comprising 20 μl of the compound, and incubated at 37° C. for 16 hours.
(§4) The corresponding OD values were obtained by a microplate reader at a wavelength of 620 nm, and the EC50 values of the compounds were calculated by Graphpad Prism.

[1] = system: peripheral blood mononuclear cells (PBMC); assay: Stimulation of IFNγ secretion from PBMC; conditions: minimum effective concentration, human PBMC, 24 hours
Method: (§5) The stimulating effect of the compounds of the present invention on the ability of secretion of IL12 and IFN γ from PBMC was determined by the following experimental method.
(§6) • 1. RMPI 1640 (Invitrogen, 11875); • 2. FBS (Gibco, 10099-141); • 3. Ficoll-Paque PREMIUM (GE, 17-5442-02); • 4. Trypan blue solution (Sigma, T8154-100 ML); • 5. SepMate™-50 (Stemcell, 15460); • 6. Bright-LineIM blood cell counter (Sigma, Z359629-1EA); • 7. 96-well cell culture plate (Corning, 3599); • 8. 96-well v-bottom plate (Corning, 3894); • 9. Human IL-12 ELISA kit (Neobioscience Technology Co., EHC152.96); • 10. Human IFN γ kit (cisbio, 62HIFNGPEG); and • 11. PHERAStar multi-function microplate reader (BMG, PHERAStar). II. Experimental Procedures
(§7) The compound was diluted with pure DMSO to a maximum concentration of 5 mM, and a total of 9 points were obtained by a 4-fold gradient dilution. 4 μl of the compound solution was then added to 196 μl of RMPI 1640 medium containing 10% FBS and mixed well. 50 μl of the mixture was taken and added to a 96-well cell culture plate.
(§8) All reagents were equilibrated to room temperature. 60 ml of blood from a healthy human and the same volume of PBS (containing 2% FBS) were added to a 250 ml culture flask, gently pipetted, mixed well and diluted. 15 ml of lymphocyte separation solution Ficoll-Paque PREMIUM was added to a 50 ml PBMC centrifuge tube SepMate™-50, followed by the addition of 30 ml of the above diluted blood. The mixture was centrifuged at 1200 g for 10 minutes at room temperature. The supernatant was taken and then centrifuged at 300 g for 8 minutes. The cells were re-suspended in the RMPI 1640 medium containing 10% FBS and counted, and the number of PBMCs was adjusted to 3.33×10^6 cells/ml. 150 μl of the cell solution was added to the plate containing the compounds, and incubated in an incubator at 37° C., 5.0% CO2 for 24 hours. The cell culture plate was placed in a centrifuge, and centrifuged at 1200 rpm for 10 minutes at room temperature. 150 μl of the supernatant was taken from each well.
The reagents in the Human IFN γ test kit were equilibrated to room temperature. The standard and detection antibody were prepared according to the kit's instruction under dark conditions. 16 μl of the supernatant obtained by centrifugation was added to each well, and 4 μl of freshly prepared mixed detection antibody was added to each well. The solution was mixed well by shaking, and incubated overnight in the dark at room temperature. The plate was read by the PHERAStar multi-function microplate reader.
(§9) The concentration of the compound that can stimulate PBMC to produce […] that is 3 times higher than the average value of the group without the compound (SD of the group without the compound) was defined as the minimum effective concentration (MEC) value of the compound.

[2] = system: peripheral blood mononuclear cells (PBMC); assay: Stimulation of IL12 secretion from PBMC (ELISA); conditions: minimum effective concentration, human PBMC, 24 hours
Method: as §5, §6, §7, §8
The reagents in the Human IL-12 ELISA kit were equilibrated to room temperature. According to the kit's instruction, the highest concentration of the standard is 2000 pg/ml, and a total of 8 points were obtained by a 2-fold gradient dilution. The sample to be tested was diluted 20 folds. The solution was then added to a pre-coated plate at 100 μl/well. The plate was incubated at 37° C. for 90 minutes and rinsed. The […] was added at 100 μl/well, and the plate was incubated at 37° C. for 60 minutes and rinsed. HRP binding enzyme was added at 100 μl/well, and the plate was incubated at 37° C. for 30 minutes and rinsed. TMB was added, and the plate was incubated at room temperature for 5 minutes. Finally, the stop solution was added to stop the reaction, and the absorbance at 450 nm was read by the microplate reader.
as §9

human TLR7 = human TLR7 (Homo sapiens (Human), UniProt Q9NYK1); assay: Agonist activity on human TLR7 in HEK-Blue hTLR7 cells; conditions: 16 hours, OD 620 nm
Method: as §1, §2
as §3, with “hTLR7” for “hTLR8”
as §4

Sequence of human TLR8 (Q9NR97 27-1041): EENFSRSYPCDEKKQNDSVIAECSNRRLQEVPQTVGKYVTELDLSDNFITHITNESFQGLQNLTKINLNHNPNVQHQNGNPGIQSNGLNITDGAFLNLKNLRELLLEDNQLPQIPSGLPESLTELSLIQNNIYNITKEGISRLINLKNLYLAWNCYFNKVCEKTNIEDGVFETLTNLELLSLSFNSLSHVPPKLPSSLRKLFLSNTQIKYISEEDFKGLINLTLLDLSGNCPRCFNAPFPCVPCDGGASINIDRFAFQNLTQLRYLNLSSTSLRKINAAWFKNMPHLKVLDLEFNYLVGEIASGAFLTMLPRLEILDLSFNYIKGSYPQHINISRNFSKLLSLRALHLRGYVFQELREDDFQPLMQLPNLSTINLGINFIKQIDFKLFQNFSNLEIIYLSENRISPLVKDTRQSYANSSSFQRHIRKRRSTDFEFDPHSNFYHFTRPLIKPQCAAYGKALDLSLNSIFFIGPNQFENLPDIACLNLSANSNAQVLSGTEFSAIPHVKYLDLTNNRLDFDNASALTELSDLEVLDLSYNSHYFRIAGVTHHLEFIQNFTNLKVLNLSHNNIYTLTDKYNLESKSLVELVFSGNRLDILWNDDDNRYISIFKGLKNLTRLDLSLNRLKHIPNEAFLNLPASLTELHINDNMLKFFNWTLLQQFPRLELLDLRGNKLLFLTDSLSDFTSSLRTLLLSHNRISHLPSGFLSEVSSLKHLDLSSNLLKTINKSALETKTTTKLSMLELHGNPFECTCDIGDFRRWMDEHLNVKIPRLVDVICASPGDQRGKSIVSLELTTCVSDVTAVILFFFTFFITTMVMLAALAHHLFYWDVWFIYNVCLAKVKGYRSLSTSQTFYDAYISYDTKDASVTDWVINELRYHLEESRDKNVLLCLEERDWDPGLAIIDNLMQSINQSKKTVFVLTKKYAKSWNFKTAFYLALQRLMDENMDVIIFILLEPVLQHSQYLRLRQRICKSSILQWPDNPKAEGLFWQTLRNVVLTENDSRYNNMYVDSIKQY
Sequence of human TLR7 (Q9NYK1 27-1049): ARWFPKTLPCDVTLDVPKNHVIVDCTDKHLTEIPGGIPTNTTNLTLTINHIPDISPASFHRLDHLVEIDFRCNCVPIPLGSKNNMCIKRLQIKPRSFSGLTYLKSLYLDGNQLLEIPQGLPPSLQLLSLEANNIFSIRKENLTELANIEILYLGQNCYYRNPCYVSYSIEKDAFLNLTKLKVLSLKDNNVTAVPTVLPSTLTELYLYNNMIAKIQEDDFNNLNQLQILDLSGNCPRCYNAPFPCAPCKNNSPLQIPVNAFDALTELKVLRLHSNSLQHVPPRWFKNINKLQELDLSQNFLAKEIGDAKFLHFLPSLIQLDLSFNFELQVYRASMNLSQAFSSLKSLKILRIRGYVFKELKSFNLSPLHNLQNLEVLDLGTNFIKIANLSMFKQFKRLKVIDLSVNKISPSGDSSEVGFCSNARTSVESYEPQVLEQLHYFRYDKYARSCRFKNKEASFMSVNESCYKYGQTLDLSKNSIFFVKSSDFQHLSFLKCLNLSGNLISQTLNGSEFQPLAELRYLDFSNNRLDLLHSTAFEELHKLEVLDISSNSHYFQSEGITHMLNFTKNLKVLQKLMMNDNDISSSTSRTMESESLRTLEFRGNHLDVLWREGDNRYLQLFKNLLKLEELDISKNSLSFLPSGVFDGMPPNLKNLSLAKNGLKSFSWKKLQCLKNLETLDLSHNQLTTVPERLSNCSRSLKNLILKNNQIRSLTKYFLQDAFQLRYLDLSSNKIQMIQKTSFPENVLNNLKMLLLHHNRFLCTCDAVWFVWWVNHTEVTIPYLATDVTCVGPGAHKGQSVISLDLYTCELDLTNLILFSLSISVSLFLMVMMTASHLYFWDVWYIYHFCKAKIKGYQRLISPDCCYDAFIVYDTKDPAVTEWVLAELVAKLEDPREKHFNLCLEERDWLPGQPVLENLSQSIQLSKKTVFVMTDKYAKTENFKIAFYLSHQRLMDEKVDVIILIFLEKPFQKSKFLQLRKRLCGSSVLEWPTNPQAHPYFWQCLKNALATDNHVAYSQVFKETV

| Structure (SMILES) | EC50 (human TLR8) | Emax (human TLR8) | IFNγ MEC [1] | IL12 MEC [2] | EC50 (human TLR7) | Emax (human TLR7) |
| --- | --- | --- | --- | --- | --- | --- |
| CCCCC(C)(CO)Nc1nc(N)nc2cc(-c3ccc(CN4CCCC4)nc3)cnc12 (centres unmarked) [Example 1, 2-((2-Amino-7-(6-(pyrrolidin-1-ylmethyl)pyridin-3-yl)pyrido[3,2-d]pyrimidin-4-yl)amino)-2-methylhexan-1-ol] | 130 nM | 97% |  |  |  |  |
| CCCCC(C)(CO)Nc1nc(N)nc2cc(-c3ccc(C4CCN(C)CC4)nc3)cnc12 (centres unmarked) [Example 3, 2-((2-Amino-7-(6-(1-methylpiperidin-4-yl)pyridin-3-yl)pyrido[3,2-d]pyrimidin-4-yl)amino)-2-methylhexan-1-ol] | 100 nM | 104% | 27 nM | 15 nM |  |  |
| CCCC[C@](C)(CO)Nc1nc(N)nc2cc(-c3cnc(CN4CCN(C)CC4)nc3)cnc12 [Example 7, (R)-2-((2-Amino-7-(2-((4-methylpiperazin-1-yl)methyl)pyrimidin-5-yl)pyrido[3,2-d]pyrimidin-4-yl)amino)-2-methylhexan-1-ol] | 80 nM | 116% |  |  |  |  |
| CCCCC(C)(CO)Nc1nc(N)nc2cc(-c3ccc(CN4CCNCC4)nc3)cnc12 (centres unmarked) [Example 9, 2-((2-Amino-7-(6-(piperazin-1-ylmethyl)pyridin-3-yl)pyrido[3,2-d]pyrimidin-4-yl)amino)-2-methylhexan-1-ol] | 150 nM | 103% | 94 nM | 24 nM | > 30 µM | 5% |
